In the test the target is T1, VEGFR-2 (Homo sapiens, UniProt P35968).
T1 construct: purchased Cell Signaling Technology CO
T1 sequence (P35968 20-1356): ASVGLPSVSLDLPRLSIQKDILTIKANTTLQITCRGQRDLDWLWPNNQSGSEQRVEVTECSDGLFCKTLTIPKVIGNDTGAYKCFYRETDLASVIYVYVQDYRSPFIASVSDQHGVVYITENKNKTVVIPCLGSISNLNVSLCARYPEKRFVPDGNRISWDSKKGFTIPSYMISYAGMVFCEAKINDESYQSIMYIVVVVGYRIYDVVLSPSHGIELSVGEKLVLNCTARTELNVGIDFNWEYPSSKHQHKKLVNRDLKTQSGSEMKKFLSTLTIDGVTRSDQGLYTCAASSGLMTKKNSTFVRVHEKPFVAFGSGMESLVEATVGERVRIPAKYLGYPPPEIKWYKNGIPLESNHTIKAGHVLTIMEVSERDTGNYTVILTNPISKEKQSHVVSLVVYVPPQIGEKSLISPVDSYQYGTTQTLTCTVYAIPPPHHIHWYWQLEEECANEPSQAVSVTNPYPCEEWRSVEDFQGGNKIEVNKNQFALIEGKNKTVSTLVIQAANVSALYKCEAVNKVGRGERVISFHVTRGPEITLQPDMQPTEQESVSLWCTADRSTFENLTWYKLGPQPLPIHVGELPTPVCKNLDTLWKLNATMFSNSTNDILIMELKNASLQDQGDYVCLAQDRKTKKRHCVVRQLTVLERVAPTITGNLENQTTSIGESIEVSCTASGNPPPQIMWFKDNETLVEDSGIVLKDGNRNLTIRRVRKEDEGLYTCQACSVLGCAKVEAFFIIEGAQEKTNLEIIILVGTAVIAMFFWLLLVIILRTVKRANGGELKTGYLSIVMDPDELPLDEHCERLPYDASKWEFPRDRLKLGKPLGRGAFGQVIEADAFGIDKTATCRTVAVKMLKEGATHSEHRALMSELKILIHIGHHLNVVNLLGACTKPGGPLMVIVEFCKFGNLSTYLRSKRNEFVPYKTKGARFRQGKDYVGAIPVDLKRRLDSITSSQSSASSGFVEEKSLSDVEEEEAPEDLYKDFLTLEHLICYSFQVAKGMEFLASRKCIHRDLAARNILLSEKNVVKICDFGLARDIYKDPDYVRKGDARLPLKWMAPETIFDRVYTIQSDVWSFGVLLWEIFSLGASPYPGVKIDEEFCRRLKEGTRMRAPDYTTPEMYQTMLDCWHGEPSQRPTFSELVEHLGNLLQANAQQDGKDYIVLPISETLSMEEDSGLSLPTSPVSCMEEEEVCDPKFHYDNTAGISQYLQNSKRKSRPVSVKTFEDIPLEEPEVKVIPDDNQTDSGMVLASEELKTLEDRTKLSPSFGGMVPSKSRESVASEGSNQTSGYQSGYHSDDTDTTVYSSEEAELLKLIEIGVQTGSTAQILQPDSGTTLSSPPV
Kind of test: Protein kinase activity by ELISA in vitro, VEGFR-2. The format is biochemical. The conditions noted are these: read-out: IC50 of the VEGF Receptor Kinase. As for the experimental part: An ELISA (Enzyme-Linked Immunosorbent Sandwich Assay) procedure may be used to detect and measure the level of protein tyrosine kinase activity. […] According to the principle of ELISA, a monoclonal antibody can react with phosphorylated substrate specially, so biotin-labeled substrate is binded to streptavidin-coated ELISA plate, and then binded to a HRP-labeled goat anti-mouse antibody. Finally TMB is added for a color reaction and the value of A450-A630 is read by ELISA plate reader. The OD value can reflect the inhibitory activity of the VEGFR-2, PDGFR-β, c-Kit tyrosine kinases etc. treated with the test compounds at the different concentrations. So, the assay may be used to measure the inhibition ratio of the compounds for the tyrosine kinase activity. Similar assays can be designed along the same lines for any PK using techniques well known in the art.
According to the principle of ELISA, a monoclonal antibody can react with phosphorylated substrate specially, so biotin-labeled substrate is binded to streptavidin-coated ELISA plate, and then binded to a HRP-labeled goat anti-mouse antibody. Finally TMB is added for a color reaction and the value of A450-A630 is read by ELISA plate reader. The OD value can reflect the inhibitory activity of the VEGFR-2, PDGFR-β c-Kit tyrosine kinases treated with the test compounds at the different concentrations. So, the assay may be used to measure the inhibition ratio of the compounds for the tyrosine kinase activity. Similar assays can be designed along the same lines for any PK using techniques well known in the art.
VEGF Receptor 2, PDGF Receptor-beta and c-kit kinase assay kit (include kinase, 1.25M DTT, substrate peptide, 10 mM ATP, P-Tyr-100 Mouse antibody, 4×HTScan tyrosine kinase buffer), Cell Signaling Technology CO.; HRP labeled goat anti mouse IgG, Protein Tech CO.; TMB, Pierce CO.; Streptavidin Microtitration Plate, Greiner Bio-one CO.; Infinite M200 Reader, Tecan CO.
1.2.1 Immediately transfer enzyme from −80° C. to ice. Allow enzyme to thaw on ice then at 4° C. and centrifugate transiently to the bottom of centrifuge tube, then lay back on ice quickly
1.2.2 Add 10 μl of DTT (1.25 M) to 2.5 ml of 4×HTScan tyrosine kinase buffer (240 mM HEPES pH 7.5, 20 mM MgCl2, 20 mM MnCl2, 12 μM Na3VO4). Transfer 0.6 ml of DTT/Kinase buffer to each enzyme tube to make 4× reaction Cocktail. Incubate 12.5 μl of the 4× reaction cocktail with 12.5 μl/well prediluted compound of interest for 5 minutes at room temperature, and set blank control, free-enzyme control, negative control and positive control. 1.2.3 Add 10 μl 10 mM ATP to 1.25 ml 6 μM substrate peptide. Dilute the mixture with dH20 to 2.5 ml to make 2×ATP/substrate cocktail. Add 25 μl of 2×ATP/substrate cocktail to 25 μl/well preincubated reaction cocktail/compound. Incubate reaction plate at room temperature for 30 minutes. 1.2.4 Add 50 μl/well stop Buffer (50 mM EDTA, pH 8) to stop the reaction. Transfer 25 μl of each reaction and 75 μl dH2O/well to a 96-well streptavidin coated plate and incubate at room temperature for 60 minutes. Wash three times with 200 μl/well PBS/T(1×PBS, 0.05% Tween-20). 1.2.5 Dilute primary antibody, Phospho-Tyrosine mAb (P-Tyr-100), 1:500 in PBS/T with 1% BSA. Add 100 μl/well primary antibody. Incubate at room temperature for 60 minutes. Wash three times with 200 μl/well PBS/T(1×PBS, 0.05% Tween-20). 1.2.6 Prepare appropriate dilution of HRP labeled secondary antibody, 1:500 in PBS/T with 1% BSA. Add 100 μl/well secondary antibody solution. Incubate at room temperature for 30 minutes. Wash five times with 200 μl/well PBS/T 1.2.7 Add 100 μl/well TMB substrate and incubate at room temperature for 1-10 minutes. Add 50 μl 2M H2SO4 to stop the color reaction. Read the absorbance of A450-A630 with the Infinite M200 microtiter plate reader. 1.2.8 Calculate the inhibition ratio with the following formula: […]
(ELISA stands for enzyme-linked immunosorbent assay.)
With `Cc1[nH]c2c(c1C(=O)NCCN1CCOCC1)CCC/C2=C1/C(=O)Nc2ccc(Cl)cc21` [I-19, N-(2-morpholinoethyl)-2-methyl-7-[1,2-dihydro-5-chloro-2-oxo-3H-indol-(Z)-3-ylidene]-4,5,6,7-tetrahydro-1H-indole-3-carboxamide], the IC50 (in general, the midpoint of a concentration-inhibition curve) worked out at 31 nM.
In the case of `Cc1[nH]c2c(c1C(=O)NCCCN1CCOCC1)CCC/C2=C1/C(=O)Nc2ccc(F)cc21` [I-21, N-(3-morpholinopropyl)-2-methyl-7-[1,2-dihydro-5-fluoro-2-oxo-3H-indol-(Z)-3-ylidene]-4,5,6,7-tetrahydro-1H-indole-3-carboxamide] it was 27 nM; in that of `Cc1[nH]c2c(c1C(=O)NCCN1CCCCC1)CCC/C2=C1/C(=O)Nc2ccc(F)cc21` [I-26, N-(2-(piperidin-1-yl)ethyl)-2-methyl-7-[1,2-dihydro-5-fluoro-2-oxo-3H-indol-(Z)-3-ylidene]-4,5,6,7-tetrahydro-1H-indole-3-carboxamide], 9.1 nM.
Regarding `CCN(CC)CCNC(=O)c1c(C)[nH]c2c1CCC/C2=C1/C(=O)Nc2c(C)cc(C)cc21` [I-34, N-(2-(diethylamino)ethyl)-2-methyl-7-[1,2-dihydro-5,7-dimethyl-2-oxo-3H-indol-(Z)-3-ylidene]-4,5,6,7-tetrahydro-1H-indole-3-carboxamide], the IC50 amounted to 11 nM.
In the case of `CCN(CC)CCNC(=O)c1c(C)[nH]c2c1CCC/C2=C1/C(=O)Nc2ccc(Br)cc21` [I-36, N-(2-(diethylamino)ethyl)-2-methyl-7-[1,2-dihydro-5-bromo-2-oxo-3H-indol-(Z)-3-ylidene]-4,5,6,7-tetrahydro-1H-indole-3-carboxamide] it was 6.3 nM; in that of `CCN(CC)CCNC(=O)c1c(C)[nH]c2c1CCC/C2=C1/C(=O)Nc2c(F)cccc21` [I-40, N-(2-(diethylamino)ethyl)-2-methyl-7-[1,2-dihydro-7-fluoro-2-oxo-3H-indol-(Z)-3-ylidene]-4,5,6,7-tetrahydro-1H-indole-3-carboxamide], 82 nM.
For `CCN(CC)CCNC(=O)c1c(C)[nH]c2c1CCC/C2=C1/C(=O)Nc2ccc(C(=O)O)cc21` [I-44, N-(2-(diethylamino)ethyl)-2-methyl-7-[1,2-dihydro-5-carboxyl-2-oxo-3H-indol-(Z)-3-ylidene]-4,5,6,7-tetrahydro-1H-indole-3-carboxamide], the IC50 stood at 6.8 nM.
On to `CCN(CC)CCNC(=O)c1c(C)[nH]c2c1CCC/C2=C1/C(=O)Nc2ccc(NC(C)=O)cc21` [I-45], for which the IC50 stood at 8 nM.
In the case of `CCN(CC)CCNC(=O)c1c(C)[nH]c2c1CCC/C2=C1/C(=O)Nc2cc(Cl)ccc21` [I-46, N-(2-(diethylamino)ethyl)-2-methyl-7-[1,2-dihydro-6-chloro-2-oxo-3H-indol-(Z)-3-ylidene]-4,5,6,7-tetrahydro-1H-indole-3-carboxamide] it was 11 nM; in that of `CCN(CC)CCNC(=O)c1c(C)[nH]c2c1CCC/C2=C1/C(=O)Nc2cccc(F)c21` [I-49, N-(2-(diethylamino)ethyl)-2-methyl-7-[1,2-dihydro-4-fluoro-2-oxo-3H-indol-(Z)-3-ylidene]-4,5,6,7-tetrahydro-1H-indole-3-carboxamide], 12 nM; in that of `CCN(CC)CCNC(=O)c1c(C)[nH]c2c1CCC/C2=C1/C(=O)Nc2ccc(C(=O)Nc3ccc(F)cc3)cc21` [I-51, N-(2-(diethylamino)ethyl)-2-methyl-7-[N-(4-fluorophenyl)-5-carboxamide-1,2-dihydro-2-oxo-3H-indol-(Z)-3-ylidene]-4,5,6,7-tetrahydro-1H-indole-3-carboxamide], 54 nM.
Then `CCN(CC)CCNC(=O)c1c(C)[nH]c2c1CCC/C2=C1/C(=O)Nc2ccc(OC)cc21` [I-53, N-(2-(diethylamino)ethyl)-2-methyl-7-[1,2-dihydro-5-methoxy-2-oxo-3H-indol-(Z)-3-ylidene]-4,5,6,7-tetrahydro-1H-indole-3-carboxamide], with 13 nM.

Source of the values: patent US8084621B2, “3-Pyrrolo[b]cyclohexylene-2-dihydroindolinone derivatives and uses thereof” (Jiangsu Simcere Pharmaceutical R&D Co. Ltd., priority 2006, dated 2011).
